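Dose response: 5 concentrations. Exposure: 48 h. Format: 96-well plates. Endpoint: linear interpolation; highest concentration if not reached. GI50 = concentration required for 50% inhibition of growth.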 Calls of active or inactive are those of the source. No stated cut-off is given here; in the data, active = GI50 up to about 1.1 µM and inactive = higher.
How the values were obtained:
Test in all cases: NCI-60 cell line screen, 48 h
[1] = test system: DLD-1
[2] = test system: SNB-78
[3] = test system: DMS-273
[4] = test system: LXFL 529
[5] = test system: HOP-18
[6] = test system: KM-20L2
[7] = test system: M19-MEL
[8] = test system: RXF 631
[9] = test system: XF498

| Structure (SMILES) | GI50 [1] | GI50 [2] | GI50 [3] | GI50 [4] | GI50 [5] | GI50 [6] | GI50 [7] | GI50 [8] | GI50 [9] |
| --- | --- | --- | --- | --- | --- | --- | --- | --- | --- |
| Cc1cccc(NC(=O)C(=O)C2C(=O)NC(=O)NC2=O)c1C | > 100 µM (inactive) | > 100 µM (inactive) | > 100 µM (inactive) | > 100 µM (inactive) | > 100 µM (inactive) | > 100 µM (inactive) | > 100 µM (inactive) |  |  |
| CCN1CCC(O)(/C=C/c2ccccc2)C(C(=O)/C=C/c2ccccc2)C1 (configuration not stated) | 2.08 µM (inactive) | 3.33 µM (inactive) | 1.68 µM (inactive) | 1.87 µM (inactive) | 5.64 µM (inactive) | 2.62 µM (inactive) | 1.99 µM (inactive) | 4.1 µM (inactive) | 5.65 µM (inactive) |
| O=C(Nc1ccccc1SC(/C=C/NNC1=NN=C(c2ccccc2)C(c2ccccc2)N1)c1ccccc1)c1ccc(Cl)cc1Cl (configuration not stated) | 49.2 µM (inactive) | 87.5 µM (inactive) | 41.6 µM (inactive) |  |  | > 100 µM (inactive) | 44.3 µM (inactive) |  | > 10 µM (inactive) |
| COC(=O)C1C(=O)O[C@@H](c2ccc(OC)cc2OC)C1C(=O)OC (some centres not stated) | > 100 µM (inactive) | > 100 µM (inactive) | > 100 µM (inactive) | > 100 µM (inactive) | > 100 µM (inactive) | > 100 µM (inactive) | > 100 µM (inactive) |  | > 100 µM (inactive) |
| CCN(CC)CCNc1ccc(C)c2sc3ccc(O)cc3c(=O)c12 | 1.66 µM (inactive) | 1.76 µM (inactive) | 0.162 µM (active) | 1.28 µM (inactive) | 1.34 µM (inactive) | 2.14 µM (inactive) | 1.1 µM (active) |  | 1.2 µM (inactive) |
| COC(=O)c1ccc(/C=C/S(=O)(=O)c2ccccc2)cc1 | > 100 µM (inactive) | > 100 µM (inactive) | > 100 µM (inactive) | > 100 µM (inactive) |  | > 100 µM (inactive) | > 100 µM (inactive) | > 100 µM (inactive) | > 100 µM (inactive) |
| CCC1(CN(C)C)CC/C(=C\c2ccc3c(c2)OCO3)C1=O (configuration not stated) | 82.2 µM (inactive) | > 100 µM (inactive) | > 100 µM (inactive) | > 100 µM (inactive) | > 100 µM (inactive) | 47.2 µM (inactive) | > 100 µM (inactive) | > 100 µM (inactive) |  |
| Cc1cc(NS(=O)(=O)c2ccc(Nc3c4ccccc4nc4c(C(=O)NCCN(C)C)cccc34)cc2)no1 | 11.8 µM (inactive) | 12.7 µM (inactive) | 2.86 µM (inactive) | 3.6 µM (inactive) |  | 26.4 µM (inactive) | 12.5 µM (inactive) |  | 18.3 µM (inactive) |
| Cc1ccccc1-c1c(N)nc(NC#N)nc1C(=O)Nc1ccccc1 | > 100 µM (inactive) | > 100 µM (inactive) | > 100 µM (inactive) | 67.1 µM (inactive) | > 100 µM (inactive) | > 100 µM (inactive) | > 100 µM (inactive) | > 100 µM (inactive) |  |
| CCc1c(-c2coc(CC/C(C)=C/c3ccccc3)n2)oc(OC)c(C)c1=O | 26.8 µM (inactive) | 53.3 µM (inactive) | 10.1 µM (inactive) | 5.96 µM (inactive) | > 57.3 µM (inactive) | 28.5 µM (inactive) | 31.8 µM (inactive) |  | 17.7 µM (inactive) |
| Cc1ccc(C2[C@H]3C(=O)N(c4ccc(Cc5ccc(N6C(=O)[C@@H]7ON(c8ccccc8)C(c8ccc(C)cc8)[C@@H]7C6=O)cc5)cc4)C(=O)[C@H]3ON2c2ccccc2)cc1 (some centres not stated) | > 100 µM (inactive) |  | > 100 µM (inactive) | > 100 µM (inactive) | > 100 µM (inactive) | > 100 µM (inactive) | > 100 µM (inactive) |  | > 100 µM (inactive) |
| CC(=O)OC12C=CC(=O)N1c1ccccc1C(=O)O2 (configuration not stated) | > 100 µM (inactive) | 32.1 µM (inactive) | > 100 µM (inactive) | > 100 µM (inactive) | > 100 µM (inactive) | > 100 µM (inactive) | > 100 µM (inactive) |  | > 100 µM (inactive) |
| CCC(CC)NC1=C(NC(C)=O)C(=O)c2ccccc2C1=O | > 50 µM (inactive) | > 50 µM (inactive) | > 50 µM (inactive) | > 50 µM (inactive) |  | > 50 µM (inactive) | > 50 µM (inactive) |  | > 50 µM (inactive) |
| O=C1c2ccccc2C(=O)N1CCN(CCN1C(=O)c2ccccc2C1=O)Cn1cccn1 | 31.9 µM (inactive) | > 100 µM (inactive) | 46.1 µM (inactive) | > 100 µM (inactive) |  | > 100 µM (inactive) | 69.8 µM (inactive) | 29 µM (inactive) | > 100 µM (inactive) |

— ChEMBL document CHEMBL1201862, “PubChem BioAssay data set” (2004)
